Results from patent US7576127B2, “Aromatic prodrugs of propofol, compositions and uses thereof” (XenoPort, Inc., priority 2003, dated 2009).

Key:
[1] = oral dosing, rats; Raoof et al., Pharm. Res. 1996; cited from earlier work
[2] = target: T1, human SMVT (SLC5A6) (Homo sapiens, UniProt Q9Y289); experiment: Electrogenic transport in SMVT-expressing Xenopus oocytes (two-electrode voltage-clamp); format: cell-based; settings: tested at 0.5 mM on oocytes expressing SMVT; membrane potential -60 mV
T1 construct: The complete open reading frame of human SMVT (SLC5A6) was amplified; expressed in transfected cells; host or cells: Xenopus oocytes injected with cRNA transcribed in vitro from the pMO plasmid
T1 sequence (Q9Y289 1-635): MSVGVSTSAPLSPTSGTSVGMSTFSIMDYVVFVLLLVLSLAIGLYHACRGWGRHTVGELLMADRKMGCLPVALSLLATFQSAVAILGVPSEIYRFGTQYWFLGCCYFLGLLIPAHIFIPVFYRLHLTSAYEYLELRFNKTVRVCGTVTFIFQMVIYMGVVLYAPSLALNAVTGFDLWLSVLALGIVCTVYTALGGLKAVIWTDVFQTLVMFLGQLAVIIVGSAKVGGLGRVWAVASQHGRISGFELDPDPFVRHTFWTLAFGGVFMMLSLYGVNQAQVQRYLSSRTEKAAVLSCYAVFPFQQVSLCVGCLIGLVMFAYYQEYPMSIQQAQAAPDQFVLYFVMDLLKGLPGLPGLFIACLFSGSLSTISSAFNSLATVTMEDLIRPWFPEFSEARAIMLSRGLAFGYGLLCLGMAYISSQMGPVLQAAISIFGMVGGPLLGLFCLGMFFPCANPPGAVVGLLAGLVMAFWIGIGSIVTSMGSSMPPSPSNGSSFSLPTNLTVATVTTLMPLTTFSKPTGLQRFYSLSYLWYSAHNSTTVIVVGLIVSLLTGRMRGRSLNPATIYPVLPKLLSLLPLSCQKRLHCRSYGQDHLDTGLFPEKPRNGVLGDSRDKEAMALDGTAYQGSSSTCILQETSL
Text: Transporter Cloning: The complete open reading frame of human SMVT (SLC5A6) was amplified from human cDNA prepared from intestinal mRNA. Gene-specific oligonucleotide primers were designed against Genbank sequences (NM-021095). Amplified PCR products were cloned into a modified version of the mammalian expression vector pcDNA3 (termed pMO) that was engineered to contain the 5′ and 3′ untranslated regions from the Xenopus beta-globin gene. All clones were completely sequenced and tested for function by transient transfection in HEK293 cells. Radiolabeled ^3H biotin was used to assess SMVT function (see method below).
Xenopus Oocyte Expression and Electrophysiology: cRNA for oocyte expression was prepared by linearization of plasmid cDNA and in vitro transcription using T7 polymerase (Epicentre Ampliscribe kit). Xenopus oocytes were prepared and maintained as previously described (Collins et al., Proc. Natl. Acad. Sci. 1997, 13:5456-5460) and injected with 10-30 ng RNA. Transport currents were measured 2-6 days later using two-electrode voltage-clamp (Axon Instruments). […] Half-maximal concentrations were calculated using non-linear regression curve fitting software (Prism) with the Hill co-efficient fixed to 1. […]

SMILES | fraction of administered drug undergoing first pass metabolism [1] | SMVT-specific currents above background, normalized to maximal biotin elicited current [2]
CC(C)c1cccc(C(C)C)c1O [Propofol, 2,6-diisopropylphenol] | approximately 90% | 
CC(C)c1cccc(C(C)C)c1OC(=O)c1ccccc1C(=O)NCCC(=O)O [Compound 101, 3-{[2-[2,6-Bis(isopropyl)phenoxycarbonyl]-benzoyl]amino}-propanoic acid] |  | at least 10 % of Imax for biotin
